In the Kinase Knowledgebase extract (Sharma et al. 2016):

Target: EGFR (human) (UniProt P00533)
Conditions: huvec

EGFR (human), sequence (P00533 whole entry, looked up): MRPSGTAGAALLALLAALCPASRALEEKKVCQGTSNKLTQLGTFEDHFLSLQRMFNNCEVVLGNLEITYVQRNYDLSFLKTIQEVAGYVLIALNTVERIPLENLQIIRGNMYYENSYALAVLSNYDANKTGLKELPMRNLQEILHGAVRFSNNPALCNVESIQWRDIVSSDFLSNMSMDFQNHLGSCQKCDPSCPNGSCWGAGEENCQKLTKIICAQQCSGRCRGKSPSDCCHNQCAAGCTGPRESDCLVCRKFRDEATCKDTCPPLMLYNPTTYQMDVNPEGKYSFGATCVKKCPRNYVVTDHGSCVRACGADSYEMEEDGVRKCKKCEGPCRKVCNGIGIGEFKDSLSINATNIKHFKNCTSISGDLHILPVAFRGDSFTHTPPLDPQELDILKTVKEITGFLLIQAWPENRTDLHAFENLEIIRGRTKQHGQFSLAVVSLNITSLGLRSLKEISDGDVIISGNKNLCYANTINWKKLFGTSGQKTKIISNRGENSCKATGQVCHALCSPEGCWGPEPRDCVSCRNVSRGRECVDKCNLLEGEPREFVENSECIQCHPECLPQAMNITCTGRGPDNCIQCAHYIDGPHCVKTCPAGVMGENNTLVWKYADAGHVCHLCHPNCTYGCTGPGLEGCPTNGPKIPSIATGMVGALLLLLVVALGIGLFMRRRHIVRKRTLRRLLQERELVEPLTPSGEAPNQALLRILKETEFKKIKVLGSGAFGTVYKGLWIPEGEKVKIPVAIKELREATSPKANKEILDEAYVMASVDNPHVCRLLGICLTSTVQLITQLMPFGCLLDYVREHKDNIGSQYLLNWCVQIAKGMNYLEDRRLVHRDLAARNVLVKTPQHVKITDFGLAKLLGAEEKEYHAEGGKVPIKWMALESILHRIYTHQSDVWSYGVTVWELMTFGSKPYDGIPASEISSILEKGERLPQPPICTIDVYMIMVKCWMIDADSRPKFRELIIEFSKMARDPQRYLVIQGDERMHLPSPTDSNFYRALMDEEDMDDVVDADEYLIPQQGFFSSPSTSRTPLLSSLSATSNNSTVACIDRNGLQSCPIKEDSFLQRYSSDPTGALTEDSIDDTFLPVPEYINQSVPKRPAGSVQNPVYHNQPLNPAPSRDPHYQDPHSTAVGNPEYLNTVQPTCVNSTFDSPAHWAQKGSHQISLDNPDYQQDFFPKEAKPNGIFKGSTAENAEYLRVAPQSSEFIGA

SMILES | IC50 [nM]
COc1cc2c(Nc3cc(O)c(C)cc3F)ncnc2cc1OCC1CCN(C)CC1 | 200
COc1cc2c(Nc3ccc(Cl)cc3F)ncnc2cc1OC[C@@H]1CCCN(C)C1 | 150
COc1cc2c(Nc3ccc(Br)cc3F)ncnc2cc1OCCCN1CCN(C)CC1 | 90
COc1cc2c(Nc3c(F)cc(Br)cc3F)ncnc2cc1OCC1CCN(C)CC1 | 400
COc1cc2c(Nc3c(F)cc(Cl)cc3F)ncnc2cc1OCC1CCNCC1 | 600
COc1cc2c(Nc3ccc(Br)cc3F)ncnc2cc1OC/C=C/CN1CCCC1 | 90
COc1cc2c(Nc3ccc(Cl)cc3F)ncnc2cc1OC/C=C/CN1CCCC1 | 80
COc1cc2c(Nc3c(F)cc(Br)cc3F)ncnc2cc1OCC1CCNCC1 | 400
COc1cc2c(Nc3ccc(C#N)cc3F)ncnc2cc1OC/C=C/CN1CCCC1 | 1400
COc1cc2c(Nc3ccc(Br)cc3F)ncnc2cc1OCC1CCNCC1 | 100
COc1cc2c(Nc3ccc(C)cc3F)ncnc2cc1OCC1CCNCC1 | 450
COc1cc2c(Nc3ccc(Cl)cc3F)ncnc2cc1OCCC1CCN(C)CC1 | 200
COc1cc2c(Nc3ccc(Cl)cc3F)ncnc2cc1OCCCN1CCN(C)CC1 | 100
COc1cc2c(Nc3cc(O)c(Cl)cc3F)ncnc2cc1OCC1CCN(C)CC1 | 70
COc1cc2c(Nc3ccc(C)cc3F)ncnc2cc1OCC1CCN(C)CC1 | 400
COc1cc2c(Nc3ccc(Cl)cc3F)ncnc2cc1OCC1CCNCC1 | 100
